Consider 14 compounds from ChEMBL document CHEMBL1134140, “Design, synthesis, and biological evaluation of a series of simple and novel potential antimalarial compounds” (Bioorg Med Chem Lett, 2001).

The term pIC50 denotes the negative decadic logarithm of the IC50, by convention in mol/L.

For experiment [1], the system named is Trypanosoma cruzi. Briefly: (§1) In vitro Trypanosoma cruzi (TC). It counts as functional. The note with it: read-out: ED50 (the source's name).
Experiment [2] has as its system Plasmodium falciparum. The experiment is described as follows: In vitro inhibitory activity against Plasmodium falciparum. The format is functional, organism-based.
Experiment [3] is described as follows: The toxicity was evaluated against KB cells using podophyllotoxin (ED50 0.2 nM) as a standard. It counts as functional. The note with it: Homo sapiens, read-out: ED50 (the source's name).
The subject of experiment [4] is Trypanosoma cruzi. The experiment is described as §1. The format is functional, organism-based.
Experiment [5] in a line: The toxicity was evaluated against KB cells. It counts as functional. The note with it: Homo sapiens, read-out: ED50 (the source's name).

pEC50, pIC50: −log10 of the molar value.

In the case of `CCCC(=O)Oc1c(OC)c(OC)cc2c1C(=O)[C@]1(OC)C=C[C@H]2N(c2ccccc2)O1`, the pEC50 in experiment [1] is < 4.17; in experiment [3], 5.49. This compound also had a pIC50 in experiment [2] of 5.41.
In the same order, the values of `COc1cc2c(c(OC(=O)c3ccc(F)cc3)c1OC)C(=O)[C@]1(OC)C=C[C@H]2N(c2ccccc2)O1` are 5.04, 5.19 and 5.12.
The matching figures for `COc1ccc(C(=O)Oc2c(OC)c(OC)cc3c2C(=O)[C@]2(OC)C=C[C@H]3N(c3ccccc3)O2)cc1`: < 4.22, 4.88 and 5.18.
As to `COc1cc2c(c(OC)c1OC)C(=O)[C@]1(OC)C=C[C@H]2N(c2ccccc2)O1`, the pEC50 is 4.19 in experiment [1] and > 6.10 in experiment [3]. Besides, the pIC50 in experiment [2] was 5.05.
For the compound `COc1cc2c(c(O)c1OC)C(=O)[C@]1(OC)C=C[C@H]2N(c2ccccc2)O1`, the results for the pEC50 in experiment [1] and in experiment [3] were 5.37 and > 6.10, respectively. The negative logarithm of the IC50 (pIC50) in experiment [2] was 5.27.
The matching figures for `COc1cc2c(c(OC(=O)c3ccccc3)c1OC)C(=O)[C@]1(OC)C=C[C@H]2N(c2ccccc2)O1`: < 4.20, 4.93 and 5.47.
In the same order, the values of `COc1cc2c(c(OC(=O)COC(C)=O)c1OC)C(=O)[C@]1(OC)C=C[C@H]2N(c2ccccc2)O1` are < 4.19, 3.89 and 5.49.
In the same order, the values of `COc1cc2c(c(OC(=O)c3ccc(Cl)cc3)c1OC)C(=O)[C@]1(OC)C=C[C@H]2N(c2ccccc2)O1` are < 4.23, 4.54 and < 4.23.
Regarding `CCC(=O)Oc1c(OC)c(OC)cc2c1C(=O)[C@]1(OC)C=C[C@H]2N(c2ccccc2)O1`, the pIC50 in experiment [2] is 5.18; in experiment [4], < 4.15. For the same compound, the pEC50 in experiment [3] was > 6.15.
Turning to `COc1cc2c(c(OC(C)=O)c1OC)C(=O)[C@]1(OC)C=C[C@H]2N(c2ccccc2)O1`, the results for the negative-log IC50 (pIC50) in experiment [2] and in experiment [4] were 5.28 and 4.62, respectively. The pEC50 in experiment [3] is 5.20.
Turning to `COc1cc2c(c(OC(=O)c3ccccc3F)c1OC)C(=O)[C@]1(OC)C=C[C@H]2N(c2ccccc2)O1`, the pEC50 in experiment [1] was < 4.21; in experiment [3], 5.11. For the same compound, in experiment [2], the pIC50 was 5.20.
Turning to `COc1cc2c(c(OC(=O)CN3C(=O)c4ccccc4C3=O)c1OC)C(=O)[C@]1(OC)C=C[C@H]2N(c2ccccc2)O1`, the pEC50 is 4.92 in experiment [1] and 4.05 in experiment [3]. For the same compound, in experiment [2], the pIC50 is 5.21.
In the case of `O=C(Cn1ccnc1[N+](=O)[O-])NCc1ccccc1` [BENZNIDAZOLE], the pEC50 in experiment [1] is 5.15.
As for `COc1cc([C@@H]2c3cc4c(cc3[C@H](O)[C@H]3COC(=O)[C@H]23)OCO4)cc(OC)c1OC` [PODOFILOX], in experiment [5], the pEC50 was 9.70.
